pEC50: −log10 of the molar value.
Assays:
Format in all cases: functional, cell-based
[1] = system: HeLa; test: Antiviral activity against HIV1 Y188L mutant in HeLa-JC53 cells
[2] = system: HeLa; test: Antiviral activity against wild type HIV1 in HeLa-JC53 cells; settings: Homo sapiens
[3] = system: HeLa; test: Antiviral activity against HIV1 K103N-Y181C mutant in HeLa-JC53 cells

Compound | pEC50 [1] | pEC50 [2] | pEC50 [3]
Cc1ccc2cccc(C)c2c1-n1c(C)nnc1SCC(=O)Nc1ccccc1Br | 6.32 | 9.00 | 
Cc1ccc(-n2c(C)nnc2SCC(=O)Nc2ccccc2I)cc1 |  | 9.30 | 6.66
Cc1ccc(NC(=O)CSc2nnc(C)n2-c2c(C)ccc3ccccc23)c(Cl)c1 | 6.70 | 9.00 | 7.22
Cc1ccc(NC(=O)CSc2nnc(C)n2-c2cccc(Cl)c2)c(Cl)c1 |  | 6.59 | 
CCc1ccc(-n2c(C)nnc2SCC(=O)Nc2ccc(C)cc2Cl)cc1 |  | 9.70 | 7.22
Cc1ccc(NC(=O)CSc2nnc(C)n2-c2ccc(Cl)c3ccccc23)c(Cl)c1 | 6.49 | 9.00 | 6.72
COc1ccc(-n2c(SCC(=O)Nc3ccc(S(N)(=O)=O)cc3Cl)nnc2C(F)(F)F)c2ccccc12 | 7.85 | 9.40 | 
Cc1ccc2c(C)cccc2c1-n1c(C)nnc1SCC(=O)Nc1ccccc1Br | 6.48 | 9.52 | 
Cc1ccc(-n2c(C)nnc2SCC(=O)Nc2ccccc2Br)cc1 |  | 9.40 | 7.12
CSc1ccccc1NC(=O)CSc1nnc(C)n1-c1ccc(C)cc1 |  | 9.22 | 6.92
COc1cc(-n2c(C)nnc2SCC(=O)Nc2ccc(S(N)(=O)=O)cc2Cl)c2ncccc2c1 | 6.43 | 9.10 | 
Cc1ccc(-n2c(C)nnc2SCC(=O)Nc2cccc(Cl)c2Cl)cc1 |  | 10.00 | 6.96
Cc1ccc2c(C)ccc(-n3c(SCC(=O)Nc4ccc(S(N)(=O)=O)cc4Cl)nnc3C(F)(F)F)c2c1 | 7.46 | 8.22 | 
Cc1nnc(SCC(=O)Nc2ccccc2Br)n1-c1ccc(N(C)C)c2ccccc12 | 6.62 | 9.40 | 
Cc1ccc2ccccc2c1-n1c(C)nnc1SCC(=O)Nc1ccccc1Br | 6.68 | 9.00 | 7.19
NS(=O)(=O)c1ccc(NC(=O)CSc2nnc(C(F)(F)F)n2-c2cccc3ccccc23)c(Cl)c1 | 7.31 | 9.30 | 
Cc1ccc2ccc(C)c(-n3c(SCC(=O)Nc4ccc(S(N)(=O)=O)cc4Cl)nnc3C(F)(F)F)c2c1 | 7.59 | 8.52 | 
Cc1ccc(-n2c(SCC(=O)Nc3ccc(C)cc3Br)nnc2C(F)(F)F)cc1 |  | 9.30 | 5.96
CNCc1nnc(SCC(=O)Nc2ccc(C)cc2Br)n1-c1ccc(C)cc1 |  |  | < 5.00
Cc1nnc(SCC(=O)Nc2ccccc2Br)n1-c1cccc2ccccc12 | 6.14 | 8.70 | 
Cc1nnc(SCC(=O)Nc2ccc(S(N)(=O)=O)cc2Cl)n1-c1ccc(N(C)C)c2ccccc12 | 7.06 | 9.30 | 

Compound | pEC50 [1] | pEC50 [2] | pEC50 [3]
COc1ccc(-n2c(C)nnc2SCC(=O)Nc2ccc(C)cc2Cl)c2ccccc12 | 6.62 | 9.00 | 
O=C1Nc2ccc(Cl)cc2[C@@](C#CC2CC2)(C(F)(F)F)O1 [EFAVIRENZ] | 7.14 | 9.40 | 7.96
CCc1ccc(-n2c(C)nnc2SCC(=O)Nc2ccccc2Br)c2ccccc12 | 7.24 | 9.30 | 7.66
Cc1ccc(-n2c(SCC(=O)Nc3ccc(S(N)(=O)=O)cc3Cl)nnc2C(F)(F)F)c2ccccc12 | 7.60 | 9.40 | 
Cc1cc(C)c2ccccc2c1-n1c(C)nnc1SCC(=O)Nc1ccccc1Br | 7.05 | 9.00 | 7.15
Cc1nnc(SCC(=O)Nc2ccccc2Br)n1-c1ccc(Cl)c2ccccc12 | 6.70 | 9.10 | 6.89
Cc1ccc2c(C)ccc(-n3c(C)nnc3SCC(=O)Nc3ccc(S(N)(=O)=O)cc3Cl)c2n1 | 7.82 | 9.22 | 
Cc1ccc(-n2c(SCC(=O)Nc3ccc(C)cc3Br)nnc2C(C)C)cc1 |  |  | < 5.00
Cc1ccc2cc(Cl)cc(-n3c(C)nnc3SCC(=O)Nc3ccc(S(N)(=O)=O)cc3Cl)c2n1 | 7.00 | 8.70 | 
Cc1ccc(-n2c(C)nnc2SCC(=O)Nc2cccc(C)c2C)cc1 |  | 7.22 | < 5.00
Cc1ccc(-n2c(C)nnc2SCC(=O)Nc2ccc(S(N)(=O)=O)cc2Cl)c2ccccc12 | 7.70 | 9.70 | 
Cc1ccc(NC(=O)CSc2nnc(C)n2-c2ccc(C(F)(F)F)cc2)c(Cl)c1 |  | 7.72 | 6.64
Cc1ccc(-n2c(C)nnc2SCC(=O)Nc2ccccc2Br)c2ccccc12 | 7.16 | 9.22 | 7.85
Cc1ccc(NC(=O)CSc2nnc(C)n2-c2cccc3cccnc23)c(Cl)c1 | 5.24 | 8.10 | 
COc1ccc(-n2c(C)nnc2SCC(=O)Nc2ccc(S(N)(=O)=O)cc2Cl)c2ccccc12 | 6.96 | 9.15 | 
Cc1ccc(-n2c(C)nnc2SCC(=O)Nc2ccc(C#N)cc2Cl)cc1 |  | 8.52 | 6.05
Cc1ccc(-n2c(C)nnc2SCC(=O)Nc2ccccc2-c2ccccc2)cc1 |  | < 5.00 | < 5.00
Cc1ccc(NC(=O)CSc2nnc(C)n2-c2ccc(F)cc2)c(Cl)c1 |  | 5.64 | < 5.00
Cc1ccc(-n2c(C)nnc2SCC(=O)Nc2ccc(C)cc2Br)cc1 |  | 9.40 | 7.00
Cc1ccc(-n2c(C)nnc2SCC(=O)Nc2ccccc2Cl)cc1 |  | 9.15 | 6.82
COC(=O)c1ccc(NC(=O)CSc2nnc(C)n2-c2ccc(C)cc2)c(Cl)c1 |  | 9.40 | 6.92

Compound | pEC50 [1] | pEC50 [2] | pEC50 [3]
Cc1ccc2c(-n3c(C)nnc3SCC(=O)Nc3ccccc3Br)ccc(C)c2c1 | 6.82 | 9.30 | 
Cc1cc2c(C)ccc(-n3c(C)nnc3SCC(=O)Nc3ccccc3Br)c2cc1C | 6.96 | 9.00 | 
Cc1ccc(NC(=O)CSc2nnc(C)n2-c2ccc(C)c3ccccc23)c(Cl)c1 | 7.00 | 9.00 | 7.80
Cc1ccc(-n2c(O)nnc2SCC(=O)Nc2ccc(C)cc2Br)cc1 |  |  | < 5.00
Cc1ccc(NC(=O)CSc2nnc(C)n2-c2cc(C)c(C)c3ccccc23)c(Cl)c1 | 6.80 | 9.00 | 
Cc1ccc(-n2c(C)nnc2SCC(=O)Nc2cccc(Cl)c2)cc1 |  | < 5.00 | < 5.00
Cc1ccc(-n2c(C)nnc2SCC(=O)Nc2ccc(OC(F)(F)F)cc2Br)cc1 |  | 7.24 | < 5.00
Cc1ccc(NC(=O)CSc2nnc(C)n2-c2cccc3ccccc23)c(Cl)c1 | 6.23 | 8.40 | 7.27
Cc1ccc(-n2c(C)nnc2SCC(=O)Nc2cc(Cl)ccc2Cl)cc1 |  | 7.00 | 
Cc1ccc(-n2c(C)nnc2SCC(=O)Nc2ccc(C)cc2Cl)cc1 |  | 9.05 | 6.77
Cc1ccc(-n2c(SCC(=O)Nc3ccc(C)cc3Br)nnc2C2CC2)cc1 |  |  | < 5.00
Cc1cccc(-n2c(C)nnc2SCC(=O)Nc2ccc(C)cc2Cl)c1 |  | 6.96 | 
Cc1ccc2cccc(-n3c(C)nnc3SCC(=O)Nc3ccc(S(N)(=O)=O)cc3Cl)c2n1 | 6.41 | 9.00 | 
NS(=O)(=O)c1ccc(NC(=O)CSc2nnc(C(F)(F)F)n2-c2ccc(Cl)c3ccccc23)c(Cl)c1 | 7.39 | 8.40 | 
Cc1ccc(-n2c(C)nnc2SCC(=O)Nc2ccc(C)cc2Cl)c(C)c1 |  | 10.00 | 7.22
Cc1ccc(NC(=O)CSc2nnc(C)n2-c2c(C)cc(C)c3ccccc23)c(Cl)c1 | 7.05 | 9.00 | 
Cc1ccc(-n2cnnc2SCC(=O)Nc2ccc(C)cc2Br)cc1 |  | 7.15 | < 5.00
Cc1nnc(SCC(=O)Nc2ccc(S(N)(=O)=O)cc2Cl)n1-c1cccc2cccnc12 | 5.62 | 8.40 | 
Cc1ccc(NC(=O)CSc2nnc(C)n2-c2cccc(C(F)(F)F)c2)c(Cl)c1 |  | < 6.22 | 
Cc1cc(-n2c(C)nnc2SCC(=O)Nc2ccccc2Br)c2ccccc2c1C | 7.01 | 9.30 | 7.51
Cc1nnc(SCC(=O)Nc2ccccc2Br)n1-c1cccc2cccnc12 | 5.38 | 8.15 | 

Compound | pEC50 [1] | pEC50 [2] | pEC50 [3]
Cc1nnc(SCC(=O)Nc2ccc(S(N)(=O)=O)cc2Cl)n1-c1ccc(Cl)c2ccccc12 | 7.17 | 9.00 | 
Cc1ccc2c(C)ccc(-n3c(C)nnc3SCC(=O)Nc3ccccc3Br)c2c1 | 7.92 | 9.52 | 
NS(=O)(=O)c1ccc(NC(=O)CSc2nnc(C(F)(F)F)n2-c2cccc3cccnc23)c(Cl)c1 | 6.74 | 8.70 | 
COCc1nnc(SCC(=O)Nc2ccc(C)cc2Br)n1-c1ccc(C)cc1 |  |  | < 5.00
Cc1ccc2c(C)cc(C)c(-n3c(C)nnc3SCC(=O)Nc3ccc(S(N)(=O)=O)cc3Cl)c2n1 | 7.96 | 9.15 | 
Cc1cc2c(C)cccc2c(-n2c(C)nnc2SCC(=O)Nc2ccccc2Br)c1C | 6.80 | 9.10 | 
Cc1ccc(-n2c(CO)nnc2SCC(=O)Nc2ccc(C)cc2Br)cc1 |  |  | < 5.00
Cc1nnc(SCC(=O)Nc2ccc(S(N)(=O)=O)cc2Cl)n1-c1cc(Br)cc2cccnc12 | 6.72 | 9.10 | 
Cc1ccc2cccc(-n3c(SCC(=O)Nc4ccc(S(N)(=O)=O)cc4Cl)nnc3C(F)(F)F)c2n1 | 7.66 | 9.22 | 
Cc1ccc(-n2c(C)nnc2SCC(=O)Nc2ccc(Cl)cc2Cl)cc1 |  | 8.30 | 
Cc1ccc(-n2c(C)nnc2SCC(=O)Nc2ccc(Cl)cc2)cc1 |  | 6.40 | < 5.00
Cc1ccc(-n2c(C)nnc2SCC(=O)Nc2ccc(Oc3ccccc3)cc2)cc1 |  | 5.96 | < 5.00
Cc1ccc(-n2c(C)nnc2SCC(=O)Nc2ccccc2C(F)(F)F)cc1 |  | 8.15 | < 5.00
Cc1cc2cccc(C)c2c(-n2c(C)nnc2SCC(=O)Nc2ccccc2Br)c1C | 6.70 | 8.52 | 
Cc1ccc(NC(=O)CSc2nnc(C)n2-c2ccccc2Cl)c(Cl)c1 |  | 8.10 | 7.00
CSCc1nnc(SCC(=O)Nc2ccc(C)cc2Br)n1-c1ccc(C)cc1 |  |  | < 5.00
CCc1nnc(SCC(=O)Nc2ccc(C)cc2Br)n1-c1ccc(C)cc1 |  | 10.00 | 5.60
Cc1ccc(-n2c(C)nnc2SCC(=O)Nc2ccc(C(C)C)cc2Br)cc1 |  | 6.85 | < 5.00
Cc1nnc(SCC(=O)Nc2ccc(S(N)(=O)=O)cc2Cl)n1-c1cccc2ccccc12 | 6.72 | 9.30 | 
